{"source": "ChEMBL document CHEMBL4715821", "about": "“Discovery of 4-ethoxy-7H-pyrrolo[2,3-d]pyrimidin-2-amines as potent, selective and orally bioavailable LRRK2 inhibitors” (Bioorg Med Chem Lett, 2018)", "key": {"[1]": {"test": "Metabolic stability in human liver microsomes assessed as intrinsic clearance", "format": "ADME, Microsome"}, "[2]": {"target": "Tyrosine-protein kinase ABL1 (Homo sapiens) (UniProt P00519)", "sequence (P00519 whole entry)": "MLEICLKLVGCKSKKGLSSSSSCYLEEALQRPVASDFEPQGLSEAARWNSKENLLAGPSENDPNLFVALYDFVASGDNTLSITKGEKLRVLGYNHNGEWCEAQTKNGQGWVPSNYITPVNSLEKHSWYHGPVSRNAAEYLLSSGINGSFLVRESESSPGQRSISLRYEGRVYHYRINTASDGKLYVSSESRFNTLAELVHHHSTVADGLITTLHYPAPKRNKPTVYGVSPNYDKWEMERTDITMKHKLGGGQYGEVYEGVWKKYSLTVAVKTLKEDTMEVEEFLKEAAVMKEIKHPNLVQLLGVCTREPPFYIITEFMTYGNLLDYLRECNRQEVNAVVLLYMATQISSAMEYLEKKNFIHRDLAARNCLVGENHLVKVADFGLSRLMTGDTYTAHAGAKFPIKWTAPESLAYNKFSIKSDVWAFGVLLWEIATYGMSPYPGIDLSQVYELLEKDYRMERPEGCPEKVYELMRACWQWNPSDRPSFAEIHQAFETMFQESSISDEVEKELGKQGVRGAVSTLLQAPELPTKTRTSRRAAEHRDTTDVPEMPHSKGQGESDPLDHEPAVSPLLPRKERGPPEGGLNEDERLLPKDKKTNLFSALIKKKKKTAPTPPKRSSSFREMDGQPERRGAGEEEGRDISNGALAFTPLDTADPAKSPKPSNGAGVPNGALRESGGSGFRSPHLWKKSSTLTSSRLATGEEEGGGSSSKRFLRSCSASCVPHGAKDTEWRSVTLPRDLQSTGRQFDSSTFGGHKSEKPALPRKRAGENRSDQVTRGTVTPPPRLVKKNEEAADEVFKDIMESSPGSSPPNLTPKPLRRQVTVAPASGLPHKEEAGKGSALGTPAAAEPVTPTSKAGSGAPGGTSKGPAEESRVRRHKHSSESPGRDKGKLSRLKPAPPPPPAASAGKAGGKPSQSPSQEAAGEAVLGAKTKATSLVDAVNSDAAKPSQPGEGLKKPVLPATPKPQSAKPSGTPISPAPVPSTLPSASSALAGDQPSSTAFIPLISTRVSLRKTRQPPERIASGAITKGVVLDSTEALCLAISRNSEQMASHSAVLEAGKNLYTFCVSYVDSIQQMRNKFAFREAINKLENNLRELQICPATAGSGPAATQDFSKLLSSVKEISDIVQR", "test": "Inhibition of human ABL1 expressed in mammalian expression system assessed as residual activity at 1 uM by Kinomescan method relative to control"}, "[3]": {"target": "TGF-beta receptor type-1 (Homo sapiens) (UniProt P36897)", "test": "Inhibition of wild-type human partial length TGFBR1 (D179 to M503 residues) expressed in bacterial expression system assessed as residual activity at 1 uM by Kinomescan method relative to control"}, "[4]": {"target": "Tyrosine-protein kinase receptor UFO (Homo sapiens) (UniProt P30530)", "test": "Inhibition of wild-type human partial length AXL (R497 to Y821 residues) expressed in bacterial expression system assessed as residual activity at 1 uM by Kinomescan method relative to control"}, "[5]": {"target": "Proto-oncogene tyrosine-protein kinase Src (Homo sapiens) (UniProt P12931)", "test": "Inhibition of wild-type human partial length c-Src (M1 to L450 residues) expressed in bacterial expression system assessed as residual activity at 1 uM by Kinomescan method relative to control"}, "[6]": {"target": "Cyclin-dependent kinase 5/CDK5 activator 1 (Homo sapiens) (UniProt Q00535+Q15078)", "sequence (Q00535 whole entry, the tested form may be a part)": "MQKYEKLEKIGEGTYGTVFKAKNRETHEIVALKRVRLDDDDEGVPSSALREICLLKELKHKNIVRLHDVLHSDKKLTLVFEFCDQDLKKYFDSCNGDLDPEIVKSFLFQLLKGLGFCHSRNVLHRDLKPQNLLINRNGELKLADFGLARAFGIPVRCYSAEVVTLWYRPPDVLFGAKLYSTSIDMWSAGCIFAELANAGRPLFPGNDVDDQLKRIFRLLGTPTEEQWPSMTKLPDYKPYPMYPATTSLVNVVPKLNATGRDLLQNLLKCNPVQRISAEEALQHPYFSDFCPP", "sequence (Q15078 99-307 partner limits assumed)": "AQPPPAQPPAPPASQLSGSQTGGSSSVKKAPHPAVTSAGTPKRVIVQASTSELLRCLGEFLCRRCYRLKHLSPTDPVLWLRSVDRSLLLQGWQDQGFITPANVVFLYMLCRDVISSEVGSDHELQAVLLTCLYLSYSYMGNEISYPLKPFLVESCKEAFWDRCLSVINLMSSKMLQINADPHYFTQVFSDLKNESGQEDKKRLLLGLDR", "test": "Inhibition of wild-type human full length CDK5 (M1 to P292 residues)/p35 expressed in bacterial expression system assessed as residual activity at 1 uM by Kinomescan method relative to control"}, "[7]": {"target": "Casein kinase I isoform gamma-1 (Homo sapiens) (UniProt Q9HCP0)", "test": "Inhibition of CK1g1 (unknown origin) assessed as residual activity at 1 uM by Kinomescan method relative to control"}, "[8]": {"target": "Casein kinase II subunit alpha (Homo sapiens) (UniProt P68400)", "test": "Inhibition of CK2alpha (unknown origin) assessed as residual activity at 1 uM by Kinomescan method relative to control"}, "[9]": {"target": "Death-associated protein kinase 2 (Homo sapiens) (UniProt Q9UIK4)", "test": "Inhibition of wild type human full length DAPK2 (M1 to S370 residues) expressed in bacterial expression system assessed as residual activity at 1 uM by Kinomescan method relative to control"}, "[10]": {"target": "Ephrin type-B receptor 4 (Homo sapiens) (UniProt P54760)", "test": "Inhibition of wild-type human partial length EPHB4 (H585 to G892 residues) expressed in bacterial expression system assessed as residual activity at 1 uM by Kinomescan method relative to control"}, "[11]": {"target": "Mitogen-activated protein kinase 15 (Homo sapiens) (UniProt Q8TD08)", "sequence (Q8TD08 whole entry)": "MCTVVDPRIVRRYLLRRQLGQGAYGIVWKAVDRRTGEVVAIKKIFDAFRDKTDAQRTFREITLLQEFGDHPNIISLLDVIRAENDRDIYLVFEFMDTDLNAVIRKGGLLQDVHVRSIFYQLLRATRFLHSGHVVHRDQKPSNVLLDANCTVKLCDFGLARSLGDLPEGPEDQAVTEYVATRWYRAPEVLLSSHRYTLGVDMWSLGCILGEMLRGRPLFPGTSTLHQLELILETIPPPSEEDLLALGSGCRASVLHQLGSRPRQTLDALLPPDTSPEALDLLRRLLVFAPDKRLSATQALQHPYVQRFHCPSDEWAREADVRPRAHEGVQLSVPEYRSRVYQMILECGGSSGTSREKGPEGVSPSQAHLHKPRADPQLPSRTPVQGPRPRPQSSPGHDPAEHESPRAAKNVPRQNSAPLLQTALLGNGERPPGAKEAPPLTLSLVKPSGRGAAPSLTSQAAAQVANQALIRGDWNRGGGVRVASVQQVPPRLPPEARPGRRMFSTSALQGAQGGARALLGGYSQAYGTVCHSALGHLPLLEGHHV", "test": "Inhibition of ERK7 (unknown origin) assessed as residual activity at 1 uM by Kinomescan method relative to control"}, "[12]": {"target": "Mitogen-activated protein kinase kinase kinase kinase 2 (Homo sapiens) (UniProt Q12851)", "sequence (Q12851 whole entry, the tested form may be a part)": "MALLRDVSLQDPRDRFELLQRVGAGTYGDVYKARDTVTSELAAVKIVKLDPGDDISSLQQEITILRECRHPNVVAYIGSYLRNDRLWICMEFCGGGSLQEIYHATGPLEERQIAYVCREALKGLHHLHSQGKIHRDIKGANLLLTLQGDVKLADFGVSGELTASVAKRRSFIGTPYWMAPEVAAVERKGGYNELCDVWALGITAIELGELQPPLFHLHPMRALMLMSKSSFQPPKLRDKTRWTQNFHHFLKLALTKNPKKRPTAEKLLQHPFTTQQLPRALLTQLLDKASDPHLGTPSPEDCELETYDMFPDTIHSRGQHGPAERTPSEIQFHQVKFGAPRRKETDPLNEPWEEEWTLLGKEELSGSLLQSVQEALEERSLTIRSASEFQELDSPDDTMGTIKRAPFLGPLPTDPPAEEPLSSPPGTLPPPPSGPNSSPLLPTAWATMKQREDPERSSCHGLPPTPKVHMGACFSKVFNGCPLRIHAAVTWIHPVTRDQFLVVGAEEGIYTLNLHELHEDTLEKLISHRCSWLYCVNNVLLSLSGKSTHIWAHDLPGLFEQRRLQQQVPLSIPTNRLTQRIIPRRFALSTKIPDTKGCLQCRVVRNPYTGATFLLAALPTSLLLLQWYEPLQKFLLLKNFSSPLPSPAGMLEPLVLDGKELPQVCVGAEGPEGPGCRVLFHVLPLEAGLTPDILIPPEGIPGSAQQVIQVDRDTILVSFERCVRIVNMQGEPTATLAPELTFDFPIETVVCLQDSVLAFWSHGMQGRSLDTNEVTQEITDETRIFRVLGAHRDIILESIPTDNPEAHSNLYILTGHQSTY", "test": "Inhibition of wild-type human partial length MAP4K2 (M1 to G318 residues) expressed in mammalian expression system assessed as residual activity at 1 uM by Kinomescan method relative to control"}, "[13]": {"target": "Mitogen-activated protein kinase kinase kinase kinase 4 (Homo sapiens) (UniProt O95819)", "test": "Inhibition of wild-type human partial length MAP4K4 (M1 to R310 residues) expressed in bacterial expression system assessed as residual activity at 1 uM by Kinomescan method relative to control"}, "[14]": {"target": "LIM domain kinase 1 (Homo sapiens) (UniProt P53667)", "test": "Inhibition of wild-type human full length LIMK1 (M1 to D647 residues) expressed in bacterial expression system assessed as residual activity at 1 uM by Kinomescan method relative to control"}, "[15]": {"target": "Tyrosine-protein kinase Lyn (Homo sapiens) (UniProt P07948)", "test": "Inhibition of wild-type human partial length LYN (C219 to Q511 residues) expressed in bacterial expression system assessed as residual activity at 1 uM by Kinomescan method relative to control"}, "[16]": {"target": "Serine/threonine-protein kinase MRCK beta (Homo sapiens) (UniProt Q9Y5S2)", "test": "Inhibition of wild-type human partial length MRCKB (L56 to S417 residues) expressed in bacterial expression system assessed as residual activity at 1 uM by Kinomescan method relative to control"}, "[17]": {"target": "Dual specificity mitogen-activated protein kinase kinase 3 (Homo sapiens) (UniProt P46734)", "test": "Inhibition of wild-type human full length MEK3 (M1 to S318 residues) expressed in mammalian expression system assessed as residual activity at 1 uM by Kinomescan method relative to control"}, "[18]": {"target": "Mitogen-activated protein kinase kinase kinase 2 (Homo sapiens) (UniProt Q9Y2U5)", "test": "Inhibition of MEKK2 (unknown origin) assessed as residual activity at 1 uM by Kinomescan method relative to control"}, "[19]": {"target": "Serine/threonine-protein kinase PAK 6 (Homo sapiens) (UniProt Q9NQU5)", "test": "Inhibition of wild-type human partial length PAK6 (N298 to C681 residues) expressed in bacterial expression system assessed as residual activity at 1 uM by Kinomescan method relative to control"}, "[20]": {"target": "Phosphorylase b kinase gamma catalytic chain, skeletal muscle/heart isoform (Homo sapiens) (UniProt Q16816)", "test": "Inhibition of wild-type human full length PHKG1 (M1 to Y387 residues) expressed in bacterial expression system assessed as residual activity at 1 uM by Kinomescan method relative to control"}, "[21]": {"target": "Protein kinase C beta type (Homo sapiens) (UniProt P05771)", "test": "Inhibition of PKCbeta2 (unknown origin) assessed as residual activity at 1 uM by Kinomescan method relative to control"}, "[22]": {"target": "Serine/threonine-protein kinase N2 (Homo sapiens) (UniProt Q16513)", "sequence (Q16513 whole entry, looked up, the tested form may be a part)": "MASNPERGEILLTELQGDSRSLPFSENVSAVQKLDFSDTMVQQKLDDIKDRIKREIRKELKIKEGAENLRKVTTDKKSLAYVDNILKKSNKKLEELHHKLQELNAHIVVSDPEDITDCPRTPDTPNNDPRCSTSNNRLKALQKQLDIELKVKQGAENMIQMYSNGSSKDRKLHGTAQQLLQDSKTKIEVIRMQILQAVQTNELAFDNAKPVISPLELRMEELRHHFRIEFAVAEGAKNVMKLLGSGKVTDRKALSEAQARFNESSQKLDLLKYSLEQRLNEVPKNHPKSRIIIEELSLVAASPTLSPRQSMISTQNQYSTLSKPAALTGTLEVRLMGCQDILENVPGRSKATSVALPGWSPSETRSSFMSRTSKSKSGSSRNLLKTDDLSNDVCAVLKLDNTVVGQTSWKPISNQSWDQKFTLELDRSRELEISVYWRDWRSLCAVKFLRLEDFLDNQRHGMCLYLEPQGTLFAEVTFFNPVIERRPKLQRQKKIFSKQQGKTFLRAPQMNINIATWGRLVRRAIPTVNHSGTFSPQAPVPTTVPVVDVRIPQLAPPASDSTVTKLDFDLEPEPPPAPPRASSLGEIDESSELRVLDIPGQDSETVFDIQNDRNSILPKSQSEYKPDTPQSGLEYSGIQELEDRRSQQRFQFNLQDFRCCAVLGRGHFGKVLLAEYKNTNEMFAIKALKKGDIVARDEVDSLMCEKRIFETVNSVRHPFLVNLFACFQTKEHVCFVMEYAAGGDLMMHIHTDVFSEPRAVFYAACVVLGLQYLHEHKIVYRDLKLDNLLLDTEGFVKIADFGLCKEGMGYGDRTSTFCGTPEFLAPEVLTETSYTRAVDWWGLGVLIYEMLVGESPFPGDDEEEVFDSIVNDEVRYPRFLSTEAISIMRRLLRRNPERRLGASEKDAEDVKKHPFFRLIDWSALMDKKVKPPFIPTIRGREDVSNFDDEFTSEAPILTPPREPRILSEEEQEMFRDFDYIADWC", "test": "Inhibition of wild-type human partial length PKN2 (E634 to C984 residues) expressed in bacterial expression system assessed as residual activity at 1 uM by Kinomescan method relative to control"}, "[23]": {"target": "Serine/threonine-protein kinase TAO1 (Homo sapiens) (UniProt Q7L7X3)", "test": "Inhibition of wild-type human partial length TAOK1 (M1 to A320 residues) expressed in mammalian expression system assessed as residual activity at 1 uM by Kinomescan method relative to control"}, "[24]": {"target": "High affinity nerve growth factor receptor (Homo sapiens) (UniProt P04629)", "test": "Inhibition of wild-type human partial length TRKA (G475 to G790 residues) expressed in mammalian expression system assessed as residual activity at 1 uM by Kinomescan method relative to control"}, "[25]": {"target": "Epithelial discoidin domain-containing receptor 1 (Homo sapiens) (UniProt Q08345)", "test": "Inhibition of wild-type human partial length DDR1 (R565 to V876 residues) expressed in bacterial expression system assessed as residual activity at 1 uM by Kinomescan method relative to control"}, "[26]": {"target": "Serine/threonine-protein kinase N3 (Homo sapiens) (UniProt Q6P5Z2)", "sequence (Q6P5Z2 whole entry, looked up)": "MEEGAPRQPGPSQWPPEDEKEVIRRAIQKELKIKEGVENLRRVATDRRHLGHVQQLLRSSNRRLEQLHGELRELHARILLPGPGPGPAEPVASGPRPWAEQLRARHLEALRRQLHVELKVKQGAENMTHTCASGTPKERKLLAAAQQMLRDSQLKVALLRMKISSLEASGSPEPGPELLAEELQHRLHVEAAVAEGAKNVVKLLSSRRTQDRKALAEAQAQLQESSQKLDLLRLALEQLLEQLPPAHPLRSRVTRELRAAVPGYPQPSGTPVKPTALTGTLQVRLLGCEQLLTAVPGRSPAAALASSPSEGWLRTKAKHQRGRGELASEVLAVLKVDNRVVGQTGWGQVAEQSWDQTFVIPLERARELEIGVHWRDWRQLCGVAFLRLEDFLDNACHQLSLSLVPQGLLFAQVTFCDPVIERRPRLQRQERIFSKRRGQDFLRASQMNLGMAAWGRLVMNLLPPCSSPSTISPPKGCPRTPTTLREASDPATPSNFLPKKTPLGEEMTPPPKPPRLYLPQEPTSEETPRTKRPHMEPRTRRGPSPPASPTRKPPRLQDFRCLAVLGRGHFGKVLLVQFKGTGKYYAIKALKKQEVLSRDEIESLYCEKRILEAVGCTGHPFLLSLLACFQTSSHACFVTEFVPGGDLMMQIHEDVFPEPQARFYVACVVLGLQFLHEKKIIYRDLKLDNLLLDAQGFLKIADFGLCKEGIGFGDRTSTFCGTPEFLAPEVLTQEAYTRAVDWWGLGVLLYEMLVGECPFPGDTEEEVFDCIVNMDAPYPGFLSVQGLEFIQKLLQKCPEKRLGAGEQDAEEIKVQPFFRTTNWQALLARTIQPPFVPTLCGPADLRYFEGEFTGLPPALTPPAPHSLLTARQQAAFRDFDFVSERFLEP", "test": "Inhibition of PKN3 (unknown origin) assessed as residual activity at 1 uM by Kinomescan method relative to control"}, "[27]": {"target": "Serine/threonine-protein kinase SIK1 (Homo sapiens) (UniProt P57059)", "test": "Inhibition of wild-type human partial length SIK1 (M1 to Y304 residues) expressed in bacterial expression system assessed as residual activity at 1 uM by Kinomescan method relative to control"}}}
{"smiles": "CCOc1nc(Nc2ccc(C(=O)N3CCOCC3)cc2OC)nc2[nH]ccc12", "values": [{"measurement": "CLH", "setting": "[1]", "value": 1.1, "unit": "mL/min/g"}, {"measurement": "Activity", "setting": "[2]", "value": 105, "unit": "%"}, {"measurement": "Activity", "setting": "[3]", "value": 96.6, "unit": "%"}, {"measurement": "Activity", "setting": "[4]", "value": 93.9, "unit": "%"}, {"measurement": "Activity", "setting": "[5]", "value": 99, "unit": "%"}, {"measurement": "Activity", "setting": "[6]", "value": 93.1, "unit": "%"}, {"measurement": "Activity", "setting": "[7]", "value": 95, "unit": "%"}, {"measurement": "Activity", "setting": "[8]", "value": 79.9, "unit": "%"}, {"measurement": "Activity", "setting": "[9]", "value": 137, "unit": "%"}, {"measurement": "Activity", "setting": "[10]", "value": 96.3, "unit": "%"}, {"measurement": "Activity", "setting": "[11]", "value": 99, "unit": "%"}, {"measurement": "Activity", "setting": "[12]", "value": 90.2, "unit": "%"}, {"measurement": "Activity", "setting": "[13]", "value": 95.6, "unit": "%"}, {"measurement": "Activity", "setting": "[14]", "value": 98, "unit": "%"}, {"measurement": "Activity", "setting": "[15]", "value": 99.7, "unit": "%"}, {"measurement": "Activity", "setting": "[16]", "value": 98, "unit": "%"}, {"measurement": "Activity", "setting": "[17]", "value": 134, "unit": "%"}, {"measurement": "Activity", "setting": "[18]", "value": 99.3, "unit": "%"}, {"measurement": "Activity", "setting": "[19]", "value": 99.2, "unit": "%"}, {"measurement": "Activity", "setting": "[20]", "value": 34.3, "unit": "%"}, {"measurement": "Activity", "setting": "[21]", "value": 89.1, "unit": "%"}, {"measurement": "Activity", "setting": "[22]", "value": 101, "unit": "%"}, {"measurement": "Activity", "setting": "[23]", "value": 89.9, "unit": "%"}, {"measurement": "Activity", "setting": "[24]", "value": 105, "unit": "%"}, {"measurement": "Activity", "setting": "[25]", "value": 102, "unit": "%"}, {"measurement": "Activity", "setting": "[26]", "value": 96.5, "unit": "%"}, {"measurement": "Activity", "setting": "[27]", "value": 101, "unit": "%"}]}
